Experimental data as given in patent publication US12527806B2, “Composition for preventing or treating diabetes mellitus” (SEOUL NATIONAL UNIVERSITY R&DB FOUNDATION, priority 2020, dated 2026).

System: MIN-6 cells
Test: Cytotoxicity: cell viability of MIN-6 cells by AOPI staining and cell counter
Conditions: 24 hours

SMILES | cell viability (40 μM) | cytotoxicity (cell viability) (up to 20 μM) | cytotoxicity (cell viability) (0.5 mM to 40 mM of each factor)
CN(CC(=O)N(Cc1ccc(C2CCCCC2)cc1)c1ccc(C(=O)O)c(O)c1)S(=O)(=O)c1c(F)c(F)c(F)c(F)c1F [BP-1-102] | about 59% | no cytotoxicity was shown | 
N[C@H]1C(O)O[C@H](CO)[C@@H](O)[C@@H]1O (stereo partly shown) [glucosamine] |  |  | did not show cytotoxicity
NC(=O)c1cccnc1 [nicotinamide] |  |  | did not show cytotoxicity
